Reference: patent publication US20230310388A1, “Methods and Compositions for Treating Fungal Infections” (Neoculi Pty Ltd, priority 2020, published 2023)
≈ marks a conversion by molar mass, not a printed value. Where “and” joins values, the source holds several entries; their conditions need not be identical. Equal values may be shown once.

Each compound was assayed on Candida albicans ATCC14053 (assay: Broth micro-dilution screen at 16 μg/mL and MIC (Example 9)). Conditions: C. albicans ATCC14053; test range 0.25-64 μg/mL; duplicate.
Format: cell-based
Experimental: The antifungal activity of 201 NCL analogs against Candida albicans ATCC14053 in vitro was investigated. A broth micro-dilution method was used, according to CLSI guidelines as described. NCL analogs were dissolved in DMSO and originally screened at a single concentration of 16 μg/mL.

Row | MIC | Structure (SMILES)
1 | 4 mg/L (≈ 10.8 µM) | CC(=NNC(=N)NN=C(C)c1c[nH]c2ccccc12)c1c[nH]c2ccccc12 [NCL268]
2 | 2 mg/L and 4 mg/L | Cl.N=C(NN=Cc1ccccc1O)NN=Cc1ccccc1O [NCL107]
3 | 4 mg/L and 8 mg/L | Cl.N=C(NN=Cc1cccc(Cl)c1)NN=Cc1cccc(Cl)c1 [NCL054]
4 | 1 mg/L and 2 mg/L | CSc1ccc(C=NNC(=N)NN=Cc2ccc(SC)cc2)cc1.Cl [NCL140]
5 | 8 mg/L | CCCCCC(=NNC(=N)N)c1ccc(Cl)cc1.Cl [NCL254]
6 | 4 mg/L and 8 mg/L | CCCc1ccc(C=NNC(=N)NN=Cc2ccc(CCC)cc2)cc1.Cl [NCL121]
7 | 4 mg/L | C#Cc1cccc(C=NNC(=N)NN=Cc2cccc(C#C)c2)c1.Cl [NCL126]
8 | 16 mg/L and 32 mg/L | Nc1nc(NN=Cc2ccc(O)c(O)c2)cc(NN=Cc2ccc(O)c(O)c2)n1 [NCL243]
9 | 4 mg/L and 8 mg/L | Cl.N=C(NN=Cc1ccc2[nH]ccc2c1)NN=Cc1ccc2[nH]ccc2c1 [NCL146]
10 | 2 mg/L and 4 mg/L | Cc1ccc(C=NNC(=N)NN=Cc2ccc(C)cc2)cc1.Cl [NCL038]
11 | 1 mg/L | COc1ccc(C=CC=NNC(=N)NN=CC=Cc2ccc(OC)cc2)cc1.Cl [NCL150]

Same assay, conditions: single concentration 16 μg/mL; Growth or No growth of C. albicans ATCC14053

Row | Structure (SMILES) | Screen at 16 μg/mL
12 | N=C(N/N=C/c1ccc(-c2ccccc2)cc1)N/N=C/c1ccc(-c2ccccc2)cc1 [NCL112] | Growth
13 | Cl.N=C(NN=Cc1ccc(Cl)o1)NN=Cc1ccc(Cl)o1 [NCL145] | Growth
14 | CC(=NNC(=N)NN=C(C)c1c[nH]c2ccccc12)c1c[nH]c2ccccc12 [NCL268] | No growth
15 | O=C(NN=Cc1cccc(C(F)(F)F)c1)NN=Cc1cccc(C(F)(F)F)c1 [NCL011] | Growth
16 | Cl.N=C(NN=Cc1cccc([N+](=O)[O-])c1)NN=Cc1cccc([N+](=O)[O-])c1 [NCL109] | Growth
17 | Cc1cccc(C=NNC(=O)NN=Cc2cccc(C)c2)c1 [NCL019] | Growth
18 | CN(C)c1ccc(C=NNc2cc(NN=Cc3ccc(N(C)C)cc3)nc(N)n2)cc1 [NCL201] | Growth
19 | Nc1nc(NN=Cc2ccc3ccccc3c2)cc(NN=Cc2ccc3ccccc3c2)n1 [NCL264] | Growth
20 | Cl.N=C(NN=Cc1cccc(C(=O)O)c1)NN=Cc1cccc(C(=O)O)c1 [NCL098] | Growth
21 | COc1ccc(C=NNC(=N)NN=Cc2ccc(OC)c(O)c2)cc1O.Cl [NCL125] | Growth
22 | Cl.Cl.Nc1nc(NN=CC2CCCCC2)cc(NN=CC2CCCCC2)n1 [NCL203] | Growth
23 | COc1ccc(C=NNC(=O)NN=Cc2ccc(OC)cc2)cc1 [NCL006] | Growth
24 | Nc1nc(NN=Cc2ccc(O)cc2O)cc(NN=Cc2ccc(O)cc2O)n1 [NCL256] | Growth
25 | Cl.N=C(N)NN=Cc1nc2ccccc2s1 [NCL279] | Growth
26 | CC(Nc1cc(NC(C)c2ccccc2)nc(N)n1)c1ccccc1 (centres unmarked) [NCL184] | Growth
27 | N=C(N)NN=Cc1ccc(Cl)cc1F [NCL235] | Growth
28 | Cl.N=C(NN=C(C(=O)O)c1ccccc1)NN=C(C(=O)O)c1ccccc1 [NCL167] | Growth
29 | Cl.N=C(N)NN=Cc1ccc2nsnc2c1 [NCL280] | Growth
30 | N#Cc1ccc(C=NNC(=O)NN=Cc2ccc(C#N)cc2)cc1 [NCL007] | Growth
31 | Nc1nc(NN=Cc2ccc(Cl)nc2)cc(NN=Cc2ccc(Cl)nc2)n1 [NCL238] | Growth
32 | Cl.N=C(NN=Cc1ccccc1O)NN=Cc1ccccc1O [NCL107] | No growth
33 | CCOCC(=NNC(=N)NN=C(COCC)c1ccc(Cl)cc1)c1ccc(Cl)cc1 [NCL275] | Growth

Row | Structure (SMILES) | Screen at 16 μg/mL
34 | COc1cccc(C=NNC(=O)NN=Cc2cccc(OC)c2)c1 [NCL010] | Growth
35 | Nc1nc(NN=Cc2ccccc2O)cc(NN=Cc2ccccc2O)n1 [NCL202] | Growth
36 | CCCCc1ccc(C=NNC(=N)NN=Cc2ccc(CCCC)cc2)cc1.Cl [NCL136] | Growth
37 | Cl.N=C(NN=Cc1cccc(Cl)c1)NN=Cc1cccc(Cl)c1 [NCL054] | No growth
38 | CCO/C(N)=N/N=C(\C)c1ccc(Cl)cc1 [NCL162] | Growth
39 | Cl.N#Cc1cccc(C=NNC(=N)NN=Cc2cccc(C#N)c2)c1 [NCL026] | Growth
40 | CSc1ccc(C=NNC(=N)NN=Cc2ccc(SC)cc2)cc1.Cl [NCL140] | No growth
41 | CC(=NNC(=N)NN=C(C)c1ccccc1)c1ccccc1.Cl [NCL143] | Growth
42 | CCOC(=O)N(/N=C/c1ccc(Cl)cc1)C(=N)N/N=C/c1ccc(Cl)cc1 [NCL224] | Growth
43 | Nc1nc(NN=Cc2ccc(O)cc2)cc(NN=Cc2ccc(O)cc2)n1 [NCL196] | Growth
44 | Cl.N=C(NN=Cc1ccccc1)NN=Cc1ccccc1 [NCL100] | Growth
45 | Cl.N=C(NN=Cc1cccc2nsnc12)NN=Cc1cccc2nsnc12 [NCL276] | Growth
46 | Cl.N=C(NN=Cc1cnc2ccccc2n1)NN=Cc1cnc2ccccc2n1 [NCL147] | Growth
47 | Cl.N=C(NN=Cc1ccoc1)NN=Cc1ccoc1 [NCL095] | Growth
48 | CC(C)COC(=O)N(N=Cc1ccc(Cl)cc1)C(N)=NN=Cc1ccc(Cl)cc1 [NCL225] | Growth
49 | CCCCCCCC(=NNC(=N)NN=C(CCCCCCC)c1ccc(Cl)cc1)c1ccc(Cl)cc1 [NCL272] | Growth
50 | O=C(NN=Cc1ccc(Cl)cc1)NN=Cc1ccc(Cl)cc1 [NCL001] | Growth
51 | Cl.N=C(N)N/N=C(\C(=O)O)c1ccccc1 [NCL192] | Growth
52 | CCCCC(=NNC(=N)N)c1ccc(Cl)cc1.Cl [NCL188] | Growth
53 | Cl.N=C(NN=Cc1cc(O)c(O)cc1O)NN=Cc1cc(O)c(O)cc1O [NCL104] | Growth
54 | Cl.N=C(NN=CC(=Cc1ccccc1)c1ccccc1)NN=CC(=Cc1ccccc1)c1ccccc1 [NCL138] | Growth
55 | O=C(NN=Cc1ccc(C(F)(F)F)cc1)NN=Cc1ccc(C(F)(F)F)cc1 [NCL012] | Growth

Row | Structure (SMILES) | Screen at 16 μg/mL
56 | Nc1nc(NN=Cc2ccccc2O)nc(NN=Cc2ccccc2O)n1 [NCL207] | Growth
57 | CCCCCC(=NNC(=N)N)c1ccc(Cl)cc1.Cl [NCL254] | No growth
58 | Cl.N=C(NN=Cc1ccc2ccccc2c1)NN=Cc1ccc2ccccc2c1 [NCL093] | Growth
59 | CCCc1ccc(C=NNC(=N)NN=Cc2ccc(CCC)cc2)cc1.Cl [NCL121] | No growth
60 | Cl.N=C(NN=Cc1ccccc1Br)NN=Cc1ccccc1Br [NCL129] | Growth
61 | Cl.N#Cc1ccc(C=NNC(=N)N)cc1 [NCL031] | Growth
62 | N=C(N)NN=CC=Cc1ccccc1 [NCL249] | Growth
63 | Cl.N=C(NN=Cc1ccc(Br)o1)NN=Cc1ccc(Br)o1 [NCL144] | Growth
64 | Clc1ccc(CNCCCCNCc2ccc(Cl)cc2)cc1 [NCL258] | Growth
65 | O=C(NN=Cc1ccccc1Cl)NN=Cc1ccccc1Cl [NCL002] | Growth
66 | Nc1nc(NN=Cc2ccccc2Cl)cc(NN=Cc2ccccc2Cl)n1 [NCL205] | Growth
67 | C#Cc1cccc(C=NNC(=N)NN=Cc2cccc(C#C)c2)c1.Cl [NCL126] | No growth
68 | CC(=O)Nc1cc(Cl)ccc1C=NNC(=N)NN=Cc1ccc(Cl)cc1NC(C)=O [NCL170] | Growth
69 | Cl.N=C(NN=Cc1cc(Br)co1)NN=Cc1cc(Br)co1 [NCL133] | Growth
70 | Cc1cccc(C=NNC(=N)NN=Cc2cccc(C)c2O)c1O.Cl [NCL152] | Growth
71 | Cl.N=C(N)NN=Cc1ccc2ccccc2c1 [NCL261] | Growth
72 | CCCC(=NNC(=N)N)c1ccc(Cl)cc1.Cl [NCL233] | Growth
73 | Nc1nc(NN=Cc2ccc(O)c(O)c2)cc(NN=Cc2ccc(O)c(O)c2)n1 [NCL243] | No growth
74 | Cl.N=C(NN=Cc1ccc2[nH]ccc2c1)NN=Cc1ccc2[nH]ccc2c1 [NCL146] | No growth
75 | Cl.N=C(NN=Cc1ccc2ncccc2c1)NN=Cc1ccc2ncccc2c1 [NCL282] | No growth
76 | Cl.N=C(NN=Cc1cccc(O)c1O)NN=Cc1cccc(O)c1O [NCL101] | No growth
77 | CC(=NNc1cc(NN=C(C)c2ccc(Cl)cc2)nc(N)n1)c1ccc(Cl)cc1 [NCL204] | Growth

Row | Structure (SMILES) | Screen at 16 μg/mL
78 | Cc1ccc(C=NNC(=N)NN=Cc2ccc(C)cc2)cc1.Cl [NCL038] | No growth
79 | CC(=NNc1nc(N)nc(NN=C(C)c2ccc(Cl)cc2)n1)c1ccc(Cl)cc1 [NCL208] | Growth
80 | Cl.N=C(NN=Cc1cc(F)ccc1F)NN=Cc1cc(F)ccc1F [NCL118] | Growth
81 | Nc1nc(NN=Cc2ccccc2)cc(NN=Cc2ccccc2)n1 [NCL199] | Growth
82 | Cl.N=C(NN=Cc1cnccc1Cl)NN=Cc1cnccc1Cl [NCL175] | Growth
83 | Nc1nc(NN=Cc2cccnc2)cc(NN=Cc2cccnc2)n1 [NCL239] | Growth
84 | Cl.N=C(N)NN=Cc1ccc(F)cc1 [NCL053] | Growth
85 | COc1ccc(C=CC=NNC(=N)NN=CC=Cc2ccc(OC)cc2)cc1.Cl [NCL150] | No growth
86 | Cl.OCC(=NNc1cc(NN=C(CO)c2ccc(Cl)cc2)ncn1)c1ccc(Cl)cc1 [NCL189] | Growth
87 | Nc1nc(NN=Cc2cccc3ccccc23)cc(NN=Cc2cccc3ccccc23)n1 [NCL245] | Growth
88 | Cl.N=C(NN=Cc1ccc(O)cc1)NN=Cc1ccc(O)cc1 [NCL151] | Growth
89 | Nc1nc(NN=Cc2cccc(O)c2)cc(NN=Cc2cccc(O)c2)n1 [NCL197] | Growth
90 | Cc1cccc(C=NNC(=N)N)c1.Cl [NCL046] | Growth
91 | Cc1ccccc1C=NNC(=N)N.Cl [NCL045] | Growth
92 | Cc1ccccc1C=NNC(=O)NN=Cc1ccccc1C [NCL018] | Growth
93 | Cl.N=C(NN=Cc1cccc(Br)c1)NN=Cc1cccc(Br)c1 [NCL131] | Growth
94 | Cl.N=C(NN=C(CO)c1ccc(Cl)cc1)NN=C(CO)c1ccc(Cl)cc1 [NCL177] | Growth
95 | Cl.N=C(NN=Cc1ccc(C=CC(=O)O)cc1)NN=Cc1ccc(C=CC(=O)O)cc1 [NCL148] | Growth
96 | CC(=NNC(=N)N)c1ccc(Cl)cc1F [NCL236] | Growth
97 | Cl.N=C(NN=Cc1ccc(Cl)cc1Cl)NN=Cc1ccc(Cl)cc1Cl [NCL127] | Growth
98 | Cl.N=C(NN=Cc1ccccc1F)NN=Cc1ccccc1F [NCL022] | Growth
